Source: ChEMBL document CHEMBL6109074 (Bioorg Med Chem, 2025)
Where a name gives a salt, the structure may show the parent alone. Values belong to the molecule of their own block, whether it stands above or below them. Active and inactive are the calls of the source. No cut-off for these calls is given here.

Key:
[1] = Inhibition of HIF transcriptional activity in human HeLa cells harbouring HRE-luc preincubated for 1 hr under normoxic condition followed by 8 hrs incubation under hypoxic condition by luciferase reporter assay; assay type: cell-based
[2] = tested on: HeLa; assay: Effect on HIF-1alpa protein expression in human HeLa cells at 1 to 100 uM incubated under hypoxia condition for 8 hrs by Western blot analysis; assay type: functional, cell-based; settings: dose 1-100 µM
[3] = molecular target: T1, Histone acetyltransferase p300/Hypoxia-inducible factor 1-alpha (Homo sapiens, UniProt Q09472+Q16665); assay: Inhibition of HIF-1alpha/p300 PPI (unknown origin); assay type: protein-complex assay
[4] = molecular target: Histone acetyltransferase p300 (Homo sapiens, UniProt Q09472); assay: Inhibition of p300 CH1 domain (unknown origin) by tryptophan fluorescence spectroscopy analysis
[5] = molecular target: T1, Histone acetyltransferase p300/Hypoxia-inducible factor 1-alpha; assay: Inhibition of HIF-1alpha(unknown origin)/human p300 CH1 domain (323 to 423 residues) PPI extracted from Escherichia coli incubated for 1 hr by SpectraMax iD5 MultiMode microplate reader analysis; assay type: protein-complex assay
[6] = tested on: HeLa; assay: Effect on HIF-1alpa mRNA expression in human HeLa cells at 1 to 100 uM incubated under hypoxia condition for 8 hrs by real-time analysis; assay type: functional, cell-based; settings: dose 1-100 µM
[7] = tested on: HeLa; assay: Downregulation of c-MYC mRNA expression in human HeLa cells at 1 to 100 uM incubated under hypoxia condition for 8 hrs by RT-PCR analysis; assay type: functional, cell-based; settings: dose 1-100 µM
[8] = tested on: HeLa; assay: Downregulation of CAIX mRNA expression in human HeLa cells at 1 to 100 uM incubated under hypoxia condition for 8 hrs by real-time analysis; assay type: functional, cell-based; settings: dose 1-100 µM
[9] = tested on: HeLa; assay: Effect on STAT3 mRNA expression in human HeLa cells at 1 to 100 uM incubated under hypoxia condition for 8 hrs by RT-PCR analysis; assay type: functional, cell-based; settings: dose 1-100 µM
[10] = tested on: HeLa; assay: Downregulation of BAX mRNA expression in human HeLa cells at 1 to 100 uM incubated under hypoxia condition for 8 hrs by RT-PCR analysis; assay type: functional, cell-based; settings: dose 1-100 µM
[11] = tested on: HeLa; assay: Effect on p53 mRNA expression in human HeLa cells at 1 to 100 uM incubated under hypoxia condition for 8 hrs by RT-PCR analysis; assay type: functional, cell-based; settings: dose 1-100 µM

T1 sequence (Q09472 whole entry, the tested form may be a part): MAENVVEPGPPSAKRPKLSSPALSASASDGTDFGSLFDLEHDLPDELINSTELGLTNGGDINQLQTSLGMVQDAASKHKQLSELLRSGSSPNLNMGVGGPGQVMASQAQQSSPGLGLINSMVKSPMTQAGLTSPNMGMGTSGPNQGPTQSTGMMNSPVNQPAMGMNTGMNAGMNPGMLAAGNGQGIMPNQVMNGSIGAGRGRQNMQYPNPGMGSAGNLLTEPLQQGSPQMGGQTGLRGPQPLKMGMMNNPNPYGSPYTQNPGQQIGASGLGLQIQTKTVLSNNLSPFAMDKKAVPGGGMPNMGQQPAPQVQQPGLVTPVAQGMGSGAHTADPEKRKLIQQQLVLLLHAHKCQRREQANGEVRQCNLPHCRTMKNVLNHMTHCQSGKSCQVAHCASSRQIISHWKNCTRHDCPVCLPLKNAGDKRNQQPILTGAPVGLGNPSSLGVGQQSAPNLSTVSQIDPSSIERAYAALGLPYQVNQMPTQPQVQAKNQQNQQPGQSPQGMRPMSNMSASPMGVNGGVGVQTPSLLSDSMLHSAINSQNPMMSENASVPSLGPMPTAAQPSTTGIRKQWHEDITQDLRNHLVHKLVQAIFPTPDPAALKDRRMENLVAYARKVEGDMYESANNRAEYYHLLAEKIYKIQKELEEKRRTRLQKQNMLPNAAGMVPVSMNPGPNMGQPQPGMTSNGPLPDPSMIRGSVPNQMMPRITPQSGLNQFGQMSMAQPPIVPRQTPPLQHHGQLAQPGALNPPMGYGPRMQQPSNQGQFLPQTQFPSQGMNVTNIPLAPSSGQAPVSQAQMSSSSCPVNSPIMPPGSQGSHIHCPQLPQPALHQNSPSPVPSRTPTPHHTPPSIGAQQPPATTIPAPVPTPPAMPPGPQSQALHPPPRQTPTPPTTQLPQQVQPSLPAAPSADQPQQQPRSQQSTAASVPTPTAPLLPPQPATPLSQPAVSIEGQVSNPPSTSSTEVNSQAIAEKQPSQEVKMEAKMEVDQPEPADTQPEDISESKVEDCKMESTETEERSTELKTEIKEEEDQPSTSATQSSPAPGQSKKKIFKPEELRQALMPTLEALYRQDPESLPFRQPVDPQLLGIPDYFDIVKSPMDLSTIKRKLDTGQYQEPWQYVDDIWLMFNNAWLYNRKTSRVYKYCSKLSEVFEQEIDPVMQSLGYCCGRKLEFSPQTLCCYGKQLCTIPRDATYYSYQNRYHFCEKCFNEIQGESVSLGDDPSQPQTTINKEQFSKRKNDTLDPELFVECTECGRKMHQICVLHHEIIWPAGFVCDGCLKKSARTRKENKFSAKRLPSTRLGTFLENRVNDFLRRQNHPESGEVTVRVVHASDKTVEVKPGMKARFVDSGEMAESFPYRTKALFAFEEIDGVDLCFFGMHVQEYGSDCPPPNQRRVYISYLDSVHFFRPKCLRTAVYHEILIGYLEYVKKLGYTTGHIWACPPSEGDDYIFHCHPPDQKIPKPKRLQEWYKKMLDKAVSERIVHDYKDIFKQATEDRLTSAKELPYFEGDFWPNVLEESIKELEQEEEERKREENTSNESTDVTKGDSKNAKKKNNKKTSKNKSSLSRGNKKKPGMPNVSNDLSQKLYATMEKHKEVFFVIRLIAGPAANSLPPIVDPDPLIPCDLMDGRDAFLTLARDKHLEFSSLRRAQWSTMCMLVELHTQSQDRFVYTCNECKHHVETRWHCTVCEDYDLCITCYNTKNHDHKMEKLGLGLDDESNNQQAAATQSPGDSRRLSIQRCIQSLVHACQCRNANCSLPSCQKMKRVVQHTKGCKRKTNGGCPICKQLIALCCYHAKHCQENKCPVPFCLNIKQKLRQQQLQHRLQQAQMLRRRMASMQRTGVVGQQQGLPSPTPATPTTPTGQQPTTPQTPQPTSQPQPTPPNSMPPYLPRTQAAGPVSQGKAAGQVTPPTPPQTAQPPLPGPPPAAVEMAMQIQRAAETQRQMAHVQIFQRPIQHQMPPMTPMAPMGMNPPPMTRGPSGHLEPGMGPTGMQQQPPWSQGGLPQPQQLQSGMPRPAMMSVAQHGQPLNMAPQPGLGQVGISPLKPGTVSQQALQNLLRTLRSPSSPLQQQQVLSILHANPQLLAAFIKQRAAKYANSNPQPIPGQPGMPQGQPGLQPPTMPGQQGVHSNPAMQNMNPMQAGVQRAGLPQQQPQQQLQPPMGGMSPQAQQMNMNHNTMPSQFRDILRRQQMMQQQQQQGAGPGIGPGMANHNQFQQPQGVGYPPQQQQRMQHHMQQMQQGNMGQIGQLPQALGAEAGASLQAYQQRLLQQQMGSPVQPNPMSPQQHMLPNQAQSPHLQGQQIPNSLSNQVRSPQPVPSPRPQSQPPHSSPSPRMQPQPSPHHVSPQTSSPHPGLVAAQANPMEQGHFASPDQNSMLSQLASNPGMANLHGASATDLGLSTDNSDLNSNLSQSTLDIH
T1 sequence (Q16665 whole entry, the tested form may be a part): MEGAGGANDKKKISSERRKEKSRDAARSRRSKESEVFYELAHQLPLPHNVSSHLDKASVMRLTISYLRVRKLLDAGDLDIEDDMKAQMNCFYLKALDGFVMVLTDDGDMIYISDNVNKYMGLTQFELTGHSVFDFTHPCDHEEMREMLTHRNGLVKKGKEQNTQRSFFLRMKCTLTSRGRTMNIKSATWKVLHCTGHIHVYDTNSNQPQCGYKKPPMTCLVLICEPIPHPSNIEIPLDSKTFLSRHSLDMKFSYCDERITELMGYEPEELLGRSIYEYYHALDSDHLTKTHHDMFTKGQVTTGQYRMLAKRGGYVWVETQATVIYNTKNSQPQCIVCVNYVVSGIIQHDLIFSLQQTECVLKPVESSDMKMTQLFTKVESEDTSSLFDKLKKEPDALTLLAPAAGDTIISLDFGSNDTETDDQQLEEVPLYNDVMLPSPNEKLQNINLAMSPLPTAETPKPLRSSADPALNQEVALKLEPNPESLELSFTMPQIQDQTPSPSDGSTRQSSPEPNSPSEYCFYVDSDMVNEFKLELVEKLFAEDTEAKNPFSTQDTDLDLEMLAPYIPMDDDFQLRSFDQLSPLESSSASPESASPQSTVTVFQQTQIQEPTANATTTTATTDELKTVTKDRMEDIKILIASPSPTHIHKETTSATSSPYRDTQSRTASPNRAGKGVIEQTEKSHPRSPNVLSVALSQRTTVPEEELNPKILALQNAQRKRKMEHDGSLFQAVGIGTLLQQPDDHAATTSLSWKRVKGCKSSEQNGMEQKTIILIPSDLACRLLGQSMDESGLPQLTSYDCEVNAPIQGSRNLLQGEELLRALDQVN
Histone acetyltransferase p300, sequence (Q09472 whole entry, the tested form may be a part): as the sequence (Q09472 whole entry, the tested form may be a part) above

SMILES: Fc1ccc(C(c2ccc(F)cc2)N2CCN(C/C=C/c3ccccc3)CC2)cc1 [FLUNARIZINE HYDROCHLORIDE]
IC50 [1]: 9.01 µM

IC50 [1]: 14.3 µM
SMILES: OCCN1CCN(CCCN2c3ccccc3Sc3ccc(Cl)cc32)CC1 [PERPHENAZINE]
Activity [2]: inactive

IC50 [3]: 4.4 µM
SMILES: COC(=O)c1ccc(O)c(NC(=O)COc2ccc(C34CC5CC(CC(C5)C3)C4)cc2)c1

IC50 [4]: 0.53 µM | IC50 [5]: 0.0513 µM
SMILES: CC(C)C[C@@H]1NCCN([C@@H](CC(C)C)C(=O)N2CCN([C@@H](CCC(N)=O)C(N)=O)C(=O)[C@@H]2C)C1=O

IC50 [5]: 1.38 µM
SMILES: COC1=C(N)C(=O)c2nc(-c3nc(C(=O)O)c(C)c(-c4ccc(OC)c(OC)c4O)c3N)ccc2C1=O [STREPTONIGRIN]

SMILES: O=C(Nc1ccc([N+](=O)[O-])cc1Cl)c1cc(Cl)ccc1O
Activity [6]: inactive | Activity [7]: Active | Activity [8]: Active | Activity [9]: inactive | Activity [2]: inactive | Activity [10]: Active | Activity [11]: inactive

SMILES: [N-]=[N+]=Nc1cc(O)c(C(=O)Nc2ccc([N+](=O)[O-])cc2Cl)cc1Cl
Activity [2]: inactive

SMILES: C[C@@]12C(=O)OC(=O)[C@]1(C)[C@H]1CC[C@@H]2O1 [CANTHARIDIN]
IC50 [1]: 5.63 µM
